Test results from patent publication US8222260B2, “Substituted 6-anilinopurine derivatives as inhibitors of cytokinin oxidase/dehydrogenase and preparations containing these derivatives” (Univerzita Palackego V Olomouci, priority 2007, dated 2012).
Where two headings read alike, the source gives them in different places.

Experiments:
[1] = target: T1, AHK3 (Arabidopsis thaliana, UniProt Q9C5U1); experiment: Activation of cytokinin receptors (E. coli KMI001 beta-galactosidase reporter); format: cell-based; conditions: 28 h incubation; n.a. means no activation
T1 sequence (Q9C5U1 1-1036): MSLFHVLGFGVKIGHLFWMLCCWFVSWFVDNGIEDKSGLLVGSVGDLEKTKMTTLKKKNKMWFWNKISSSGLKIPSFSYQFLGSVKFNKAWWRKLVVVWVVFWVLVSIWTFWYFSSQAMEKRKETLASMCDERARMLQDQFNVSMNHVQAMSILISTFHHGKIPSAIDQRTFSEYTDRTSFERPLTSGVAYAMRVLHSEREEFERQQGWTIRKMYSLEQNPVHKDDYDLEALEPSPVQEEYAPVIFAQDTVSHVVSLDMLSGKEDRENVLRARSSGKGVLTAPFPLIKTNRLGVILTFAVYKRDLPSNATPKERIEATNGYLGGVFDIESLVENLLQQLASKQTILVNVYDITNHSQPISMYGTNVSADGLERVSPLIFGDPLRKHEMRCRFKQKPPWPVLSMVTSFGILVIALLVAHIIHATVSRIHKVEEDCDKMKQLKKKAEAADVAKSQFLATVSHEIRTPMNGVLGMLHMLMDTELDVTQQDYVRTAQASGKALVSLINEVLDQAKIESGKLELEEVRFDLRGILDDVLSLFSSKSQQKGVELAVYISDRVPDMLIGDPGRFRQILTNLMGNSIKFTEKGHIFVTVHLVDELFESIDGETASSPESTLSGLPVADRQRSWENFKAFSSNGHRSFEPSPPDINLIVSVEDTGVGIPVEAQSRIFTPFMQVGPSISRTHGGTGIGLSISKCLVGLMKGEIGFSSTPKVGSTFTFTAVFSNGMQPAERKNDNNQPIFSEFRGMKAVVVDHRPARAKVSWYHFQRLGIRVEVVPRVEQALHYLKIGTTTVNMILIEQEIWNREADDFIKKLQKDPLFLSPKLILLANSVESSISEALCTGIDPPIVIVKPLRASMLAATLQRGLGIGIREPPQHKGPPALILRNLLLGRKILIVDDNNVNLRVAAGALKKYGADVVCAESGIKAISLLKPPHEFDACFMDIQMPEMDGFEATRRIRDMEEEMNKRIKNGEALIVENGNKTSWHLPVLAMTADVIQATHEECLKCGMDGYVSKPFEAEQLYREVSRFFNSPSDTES
Method: Escherichia coli strains KMI001 harbouring the plasmid […]4 or […]3 were grown overnight at 25° C. in M9 media enriched with 0.1% casamino acids to OD600 1. The preculture was diluted 1:600 in 1 ml M9 medium containing 0.1% casamino acids and 1 μl stock solution of either the tested compound (10^-7 M-5×10^-5 M) or solvent control (DMSO, ethanol, methanol) were added. The cultures were further grown at 25° C. in microtiter plate, 200 μl per well. […] The cultures were centrifuged and 50 μl aliquots of the supernatant were transferred to microtiter plate containing 2 μl 150 mM 4-methyl umbelliferyl galactoside which was subsequently incubated for 1 h at 37° C. The reaction was stopped by adding 100 μl 0.2 M Na2CO3. […] The EC50 value, the compound concentration activating the receptor to 50%, was calculated from the obtained dose response curves. The values shown in Table 10 are means of three replicates and the entire test was repeated at least twice.

[2] = test system: osteosarcoma cell line HOS; experiment: Calcein AM cytotoxicity assay; format: cell-based, human; conditions: 72 hours
From the text: (§1) Absence of toxic effects against mammalian (especially human) cell lines in a wide concentration range is one of the requirements on compounds intended for use in agriculture and medicine. Because toxic compounds negatively influence metabolic processes in cells, many standard cytotoxicity assays are based on measurement of metabolisation rate of various artificial substrates. Resulting product is then quantified e.g. by means of spectrometry. The assays can be easily modified for use in 96-well plates. For evaluation of cytotoxic effect of compounds of this invention, a microtiter assay based on quantification of metabolisation of Calcein AM was used. The assay is widely used in drug screening programs and in chemosensitivity testing. In live cells, Calcein AM is enzymatically hydrolysed and accumulation of resulting calcein is manifested by green fluorescence.
Following human cell lines were used for routine screening of the compounds: T-lymphoblastic leukemia cell line CEM, promyelocytic leukemia cell line HL-60, erytroid leukemia cell line K-562, breast carcinoma cell line MCF-7, osteosarcoma cell line HOS and melanoma cell line G-361. Mouse cell lines B16-F10 (melanoma) and NIH-3T3 (fibroblasts) were used as well. The cells were maintained in Nunc/Corning 80 cm^2 plastic tissue culture flasks and cultured in cell culture medium (DMEM with 5 g/l glucose, 2 mM glutamine, 100 U/ml penicillin, 100 μg/ml streptomycin, 10% fetal calf serum and sodium bicarbonate).
(§2) The cell suspensions were prepared and diluted according to the particular cell type and the expected target cell density (2.500-30.000 cells per well based on cell growth characteristics) and pippetted (80 μl) into 96-well plates. Inoculates were allowed a pre-incubation period of 24 hours at 37° C. and 5% CO2 for stabilisation. Tested compound was added in total volume of 20 μl of water at time zero. Usually, test compound was evaluated at six 3-fold dilutions. In routine testing, the highest concentration tested was 166.6 μM. All drug concentrations were tested in triplicates. Incubations of cells with the test compounds lasted for 72 hours at 37° C., in 5% CO2 atmosphere and 100% humidity. At the end of incubation period Calcein AM in PBS was added into final concentration of 1 μg/ml. After another 1 hour of incubation fluorescence (FD) was measured with the Labsystem FIA Reader Fluoroscan Ascent (UK). Growth inhibition (GI) was estimated using the following equitation: GI=(mean FDdrug exposed wells−mean FDblank)/(mean FDcontrol wells−mean FDblank)×100%. The GI50 value, the drug concentration causing 50% reduction of Calcein AM conversion, was calculated from the obtained dose response curves.

[3] = test system: breast carcinoma cell line MCF-7; experiment: Calcein AM cytotoxicity assay; format: cell-based, human
From the text: as §1
(§3) Mouse cell lines B16-F10 (melanoma) and NIH-3T3 (fibroblasts) were used as well. The cells were maintained in Nunc/Corning 80 cm^2 plastic tissue culture flasks and cultured in cell culture medium (DMEM with 5 g/l glucose, 2 mM glutamine, 100 U/ml penicillin, 100 μg/ml streptomycin, 10% fetal calf serum and sodium bicarbonate).
as §2, with “In routine testing, the highest concentration tested was 166.6 μM.” left out, “FDblank)×100%.” for “FDblank)×100%. The GI50 value, the drug concentration causing 50% reduction of Calcein AM conversion, was calculated from the obtained dose response curves.”

[4] = test system: NIH-3T3 (fibroblasts); experiment: Calcein AM cytotoxicity assay; format: cell-based, Mouse
From the text: as §1, §3
as §2, with “In routine testing, the highest concentration tested was 166.6 μM.” left out, “FDblank)×100%.” for “FDblank)×100%. The GI50 value, the drug concentration causing 50% reduction of Calcein AM conversion, was calculated from the obtained dose response curves.”

[5] = test system: Amaranthus caudatus cotyledon/hypocotyl explants; experiment: Amaranthus bioassay (betacyanin content); format: cell-based, Amaranthus caudatus var. atropurpurea; conditions: for Activity (%) [10^−5 mol · l^−1 K = 100%]: at the concentration with highest activity, relative to 10^−5 M kinetin
Method: The standard Amaranthus bioassay was performed with the following modifications. The seeds of Amaranthus caudatus var. atropurpurea were surface-sterilised in 10% (w/v) N-chlorobenzenesulfonamide for 10 min and washed 5 times with deionized water. They were placed in 15 cm Petri dishes containing paper tissues saturated with deionized water. After 72 h of cultivation at 25° C. in darkness, the roots of the seedlings were cut off. The explants, consisting of two cotyledons and hypocotyls, were placed in 5 cm Petri dishes onto two layers of filtration paper soaked with 1 ml of the incubation medium containing 10 μmol of Na2HPO4—KH2PO4, pH 6.8, 5 μmol of tyrosine and the compound to be tested. There were 20 explants per dish. The procedure was carried out under green safe light in a darkroom. After 48 h of incubation at 25° C. in darkness, betacyanin was extracted by freezing the explants in 4 ml 3.33 μM acetic acid. The concentration of betacyanin was determined from the absorbances at 537 nm and 620 nm as follows: ΔA=A537nm−A620nm. The values ΔA were plotted against the concentration tested, are means of five replicates and the entire test was repeated at least twice. […] The compounds to be tested were dissolved in dimethylsulfoxide (DMSO) and the solution brought up to 10^−3M with distilled water.
From the obtained data, the concentration with the highest activity was selected for each compound tested. Relative activity of the compound at this concentration was calculated (Tab. 12). The activity obtained for 10^−5 M kinetin (K) was postulated as 100%.

[6] = target: T2, recombinant AtCKX2 (Arabidopsis thaliana, UniProt Q9FUJ3); experiment: Inhibition of cytokinin oxidase/dehydrogenase activity (PMS/MTT microtitre plate assay); format: biochemical
T2 sequence (Q9FUJ3 23-501): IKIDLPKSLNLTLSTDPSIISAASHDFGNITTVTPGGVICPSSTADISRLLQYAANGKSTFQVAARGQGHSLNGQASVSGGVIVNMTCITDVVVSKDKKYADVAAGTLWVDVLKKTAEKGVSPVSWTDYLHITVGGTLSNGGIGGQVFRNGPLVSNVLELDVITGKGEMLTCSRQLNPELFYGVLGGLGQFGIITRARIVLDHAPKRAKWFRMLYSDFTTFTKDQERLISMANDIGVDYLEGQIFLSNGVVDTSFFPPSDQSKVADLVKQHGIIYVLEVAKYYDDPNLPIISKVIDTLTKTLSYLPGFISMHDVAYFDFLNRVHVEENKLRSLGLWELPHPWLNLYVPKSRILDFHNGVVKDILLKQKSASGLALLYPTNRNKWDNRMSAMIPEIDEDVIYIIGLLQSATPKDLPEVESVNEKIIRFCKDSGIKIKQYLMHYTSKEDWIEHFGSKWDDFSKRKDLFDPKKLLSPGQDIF
Method: IC50 determinations were done using the assay in microtitre plate. Each well contained 100 μL of PMS/MTT [phenazine methosulfate/3-(4,5-dimethylthiazol-2-yl)-2,5-diphenyltetrazolium bromide] reaction mixture (final concentrations: 0.1 M KH2PO4, pH 7.4, 1 mM MTT, 0.2 mM PMS) containing the tested compound (3×10^−7 M-3×10^−4 M) and 30 μM N^6-isopentenyladenine (iP) as a substrate. 100 μL of cell-free growth medium of S. cerevisiae strain 23344c ura^− harboring the plasmid pYES2-AtCKX2 was directly used as a source of AtCKX2. Plates were incubated in the dark for […] at 37° C. and the enzymatic reaction was stopped by 25 μL of 35% acetic acid. The absorbance at 578 nm was measured using spectrophotometer Tecan. Absorbance of the sample without iP was subtracted.
The IC50 value, the compound concentration that inhibits the enzyme activity to 50%, was calculated from the obtained dose response curves. The values shown in Table 9 are means of three replicates and the entire test was repeated at least twice.

[7] = test system: cytokinin-dependent tobacco callus Nicotiana tabacum L. cv. Wisconsin 38; experiment: Tobacco callus biotest (plant cell division); format: cell-based
Method: The stimulatory effect of the newly prepared derivatives was tested in the calus biotest using cytokinin-dependent tobacco callus. Cytokinin-dependent tobacco callus Nicotiana tabacum L. cv. Wisconsin 38 was maintained at 25° C. in darkness on modified Murashige-Skoog medium, containing per 1 liter: 4 μmol of nicotinic acid, 2.4 μmol of pyridoxine hydrochloride, 1.2 μmol of thiamine, 26.6 μmol of glycine, 1.37 μmol of glutamine, 1.8 μmol of myo-inositol, 30 g of sucrose, 8 g of agar, 5.37 μmol of NAA and 0.5 μmol of 6-benzylaminopurine. Subcultivation was carried out every three weeks. Fourteen days before the bioassay, the callus tissue was transferred to the media without 6-benzylaminopurine. The biological activity was determined from the increase of the fresh callus weight after four weeks of cultivation. Five replicates were prepared for each concentration of the compound tested and the entire test was repeated twice. […] The compounds to be tested were dissolved in dimethylsulfoxide (DMSO) and the solution brought up to 10^−3 M with distilled water.
From the obtained data, the concentration with the highest activity was selected for each compound tested. Relative activity of the compound at this concentration was calculated (Table 11). The activity obtained for 10^−5 M of the control substance kinetin (K) was postulated as 100%.

Compound | Activity (%) [10^−5 mol · l^−1 K = 100%] [5] | GI50 [2] | GI50 ([3]; 72 hours, read-out: GI50 MCF7) | GI50 ([4]; 72 hours) | other results
Nc1nc(Nc2ccccc2)c2nc[nH]c2n1 [Compound 64] | 125.2% |  |  |  | EC50 [1]: 25.3 µM; GI50 ([2]; Homo sapiens): > 167 µM; GI50 ([3]; Homo sapiens, MCF7, 72 hours): > 167 µM; GI50 ([4]; Mus musculus, NIH3T3, 72 hours): > 167 µM
Nc1nc(Nc2cccc(F)c2)c2nc[nH]c2n1 [Compound 69] | 113.2% |  |  |  | EC50 [1]: > 50 µM; IC50 ([6]; 30 μM iP as substrate, pH 7.4, 37° C., means of three replicates, read-out: IC50, inhibition of recombinant AtCKX2): 29.4 µM
Sc1nc(Nc2ccccc2)c2nc[nH]c2n1 [Compound 78, 2-Thio-6-anilinopurine] |  | > 167 µM | > 167 µM | > 167 µM | 
COc1ccccc1Nc1nc(S)nc2nc[nH]c12 [Compound 87] |  | > 167 µM | > 167 µM | > 167 µM | 
CSc1nc(Nc2ccccc2)c2[nH]cnc2n1 [Compound 94, 2-Methylthio-6-anilinopurine] |  |  |  |  | GI50 ([2]; Homo sapiens): > 167 µM; GI50 ([3]; Homo sapiens, MCF7, 72 hours): > 167 µM; GI50 ([4]; Mus musculus, NIH3T3, 72 hours): > 167 µM
CSc1nc(Nc2cccc(O)c2)c2nc[nH]c2n1 [Compound 101] |  | > 167 µM | > 167 µM | > 167 µM | 
COc1cccc(Nc2nc(SC)nc3[nH]cnc23)c1 [Compound 103] | 156.4% | > 167 µM | > 167 µM | > 167 µM | Activity (%) [10^−5 mol · l^−1 K = 100%] ([7]; at the concentration with highest activity, relative to 10^−5 M kinetin): 142.8%; concentration with highest activity ([7]; fresh weight after four weeks): 10^−5 mol · l^−1; concentration with highest activity ([5]; 48 h): 10^−5 mol · l^−1
Cc1nc(Nc2cccc(O)c2)c2nc[nH]c2n1 [Compound 116] |  | > 167 µM | > 167 µM | > 167 µM | 
O=C(Nc1ccccc1)Nc1cnns1 [thidiazuron, reference compound] |  |  |  |  | IC50 [6]: 30 µM
